Reference: ChEMBL document CHEMBL1201862, “PubChem BioAssay data set” (2004)
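Tested at 5 concentrations; 48 h exposure; 96-well plates; endpoints linearly interpolated, else capped at highest concentration. Here, GI50 denotes the concentration required for 50% inhibition of growth.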 Calls of active or inactive are those of the source. Rule as the data show it: active = GI50 up to about 1.1 µM and inactive = higher.

Assays:
Experiment in all cases: inhibition of tumour cell growth, NCI panel, 48 h
XF498 = system: XF498
SW-620 = system: SW-620
786-0 = system: 786-0
KM12 = system: KM12
DMS-114 = system: DMS-114
M14 = system: M14
NCI-H460 = system: NCI-H460
OVCAR-8 = system: OVCAR-8
CCRF-CEM = system: CCRF-CEM
NCI-H23 = system: NCI-H23
HT-29 = system: HT-29
SF-268 = system: SF-268
K562 = system: K562
U-251 = system: U-251
HCT-116 = system: HCT-116
SNB-78 = system: SNB-78
COLO 205 = system: COLO 205
HOP-62 = system: HOP-62
UACC-257 = system: UACC-257
EKVX = system: EKVX
OVCAR-4 = system: OVCAR-4
OVCAR-3 = system: OVCAR-3
KM-20L2 = system: KM-20L2
IGROV-1 = system: IGROV-1
RPMI-8226 = system: RPMI-8226
SN12C = system: SN12C
SF-539 = system: SF-539
ACHN = system: ACHN
LXFL 529 = system: LXFL 529
CAKI-1 = system: CAKI-1
UO-31 = system: UO-31
HOP-92 = system: HOP-92
SK-MEL-28 = system: SK-MEL-28
NCI-H522 = system: NCI-H522
NCI-H226 = system: NCI-H226
A549 = system: A549
DLD-1 = system: DLD-1
HL-60 = system: HL-60
SK-MEL-2 = system: SK-MEL-2
TK-10 = system: TK-10
Malme-3M = system: Malme-3M
M19-MEL = system: M19-MEL
LOX IMVI = system: LOX IMVI
SNB-19 = system: SNB-19
SK-MEL-5 = system: SK-MEL-5
RXF 393 = system: RXF 393
SNB-75 = system: SNB-75
DMS-273 = system: DMS-273
A498 = system: A498
SK-OV-3 = system: SK-OV-3
UACC-62 = system: UACC-62
OVCAR-5 = system: OVCAR-5
HCT-15 = system: HCT-15
SF-295 = system: SF-295

Structure (SMILES): Cc1ccc(C)c(NC(=O)C(=O)CC(=O)C2CCOC2=O)c1 (centres undefined)
- GI50 (XF498): > 100 µM (inactive)
- GI50 (SW-620): > 100 µM (inactive)
- GI50 (786-0): > 100 µM (inactive)
- GI50 (KM12): > 100 µM (inactive)
- GI50 (DMS-114): > 100 µM (inactive)
- GI50 (M14): > 100 µM (inactive)
- GI50 (NCI-H460): > 100 µM (inactive)
- GI50 (OVCAR-8): > 100 µM (inactive)
- GI50 (CCRF-CEM): > 100 µM (inactive)
- GI50 (NCI-H23): > 100 µM (inactive)
- GI50 (HT-29): > 100 µM (inactive)
- GI50 (SF-268): > 100 µM (inactive)
- GI50 (K562): > 100 µM (inactive)
- GI50 (U-251): > 100 µM (inactive)
- GI50 (HCT-116): > 100 µM (inactive)
- GI50 (SNB-78): > 100 µM (inactive)
- GI50 (COLO 205): > 100 µM (inactive)
- GI50 (HOP-62): > 100 µM (inactive)
- GI50 (UACC-257): > 100 µM (inactive)
- GI50 (EKVX): > 100 µM (inactive)
- GI50 (OVCAR-4): > 100 µM (inactive)
- GI50 (OVCAR-3): > 100 µM (inactive)
- GI50 (KM-20L2): > 100 µM (inactive)
- GI50 (IGROV-1): > 100 µM (inactive)
- GI50 (RPMI-8226): > 100 µM (inactive)
- GI50 (SN12C): > 100 µM (inactive)
- GI50 (SF-539): > 100 µM (inactive)
- GI50 (ACHN): > 100 µM (inactive)
- GI50 (LXFL 529): > 100 µM (inactive)
- GI50 (CAKI-1): > 100 µM (inactive)
- GI50 (UO-31): > 100 µM (inactive)
- GI50 (HOP-92): > 100 µM (inactive)
- GI50 (SK-MEL-28): 28.5 µM (inactive)
- GI50 (NCI-H522): > 100 µM (inactive)
- GI50 (NCI-H226): > 100 µM (inactive)
- GI50 (A549): > 100 µM (inactive)
- GI50 (DLD-1): > 100 µM (inactive)
- GI50 (HL-60): > 100 µM (inactive)
- GI50 (SK-MEL-2): > 100 µM (inactive)
- GI50 (TK-10): > 100 µM (inactive)
- GI50 (Malme-3M): > 100 µM (inactive)
- GI50 (M19-MEL): > 100 µM (inactive)
- GI50 (LOX IMVI): > 100 µM (inactive)
- GI50 (SNB-19): > 100 µM (inactive)
- GI50 (SK-MEL-5): > 100 µM (inactive)
- GI50 (RXF 393): > 100 µM (inactive)
- GI50 (SNB-75): 67.5 µM (inactive)
- GI50 (DMS-273): > 100 µM (inactive)
- GI50 (A498): > 100 µM (inactive)
- GI50 (SK-OV-3): > 100 µM (inactive)
- GI50 (UACC-62): > 100 µM (inactive)
- GI50 (OVCAR-5): > 100 µM (inactive)
- GI50 (HCT-15): > 100 µM
- GI50 (SF-295): > 100 µM (inactive)
